Assay results as given in patent publication US8546608B2, “Proteasome inhibitors and methods of using the same” (Cephalon, Inc., priority 2003, dated 2013).
pEC50, pIC50: −log10 of the molar value.

Key:
[1] = molecular target: T1, 20S Human Erythrocyte Proteasome (HEP) (Homo sapiens, UniProt P20618+P28074); experiment: Chymotrypsin-like activity of 20S Human Erythrocyte Proteasome (HEP), IC50 determination; format: biochemical; settings: assay of Example C, inhibition of HEP
T1 construct: 20S Human Erythrocyte Proteasome (HEP), purchased from Immatics Biotechnologies Inc; purchased Immatics Biotechnologies Inc., Tübingen, Germany; host or cells: human erythrocytes (natural source)
Experimental: Assay for Chymotrypsin-like Activity of 20S Human Erythrocyte Proteasome (HEP)
Proteasome chymotrypsin-like activity of compounds of the invention was assayed according to the following procedure.
In 96-well microtiter plates, 20S Human Erythrocyte Proteasome (HEP), purchased from Immatics Biotechnologies Inc., Tübingen, Germany was plated at 0.2 μg/mL (about 0.6 nM catalytic sites) in 0.04% SDS 20 mM Tris buffer. A fluorimetric substrate Suc-LLVY-AMC (succinyl-Leu-Leu-Val-Tyr-7-amido-4-methylcoumarin), purchased from Sigma Inc., St. Louis, Mo., USA was added to a final concentration of 100 μM from a stock solution of 10 mM in dimethylsulfoxide. Reaction volumes were 100 μl per well. […] Proteasome activity was determined under conditions in which substrate hydrolysis increased linearly with time and the change in fluorescence signal was proportional to the concentration of free AMC.
Determination of IC50 Values for HEP and α-Chymotrypsin Inhibitors
(§1) Inhibition of the chymotrypsin-like activity of HEP and of bovine α-chymotrypsin was determined by incubating the enzyme with various concentrations of putative inhibitors for 15 minutes at 37° C. (or room temperature for α-chymotrypsin) prior to the addition of substrate. Each experimental condition was evaluated in triplicate, and replicate experiments were performed for the inhibitors described herein.

[2] = molecular target: T2, proteasome in Molt-4 cells (human leukemia) (Homo sapiens, UniProt P20618+P28074); format: cell-based; settings: assay of Example E, inhibition of MOLT4; read-out: MOLT4 (EC50)
T2 sequence (P28074 60-263): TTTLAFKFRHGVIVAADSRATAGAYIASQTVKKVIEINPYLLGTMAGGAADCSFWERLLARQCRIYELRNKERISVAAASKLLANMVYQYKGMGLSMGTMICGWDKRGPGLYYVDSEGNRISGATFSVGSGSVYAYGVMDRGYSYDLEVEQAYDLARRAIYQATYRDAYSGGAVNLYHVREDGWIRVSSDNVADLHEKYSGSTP
T2 sequence (P20618 29-241): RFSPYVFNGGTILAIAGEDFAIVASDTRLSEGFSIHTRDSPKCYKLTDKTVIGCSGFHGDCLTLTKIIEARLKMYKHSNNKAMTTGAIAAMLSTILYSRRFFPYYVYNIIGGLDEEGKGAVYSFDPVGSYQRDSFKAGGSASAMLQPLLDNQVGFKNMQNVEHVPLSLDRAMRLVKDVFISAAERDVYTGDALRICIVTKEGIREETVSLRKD
Experimental: Cellular Assay for Chymotrypsin-like activity of Proteasome in Molt-4 Cell Line
The chymotrypsin-like activity of proteasome in Molt-4 cells (human leukemia) was assayed according to the following procedure. A brief description of the method was published previously (Harding et al., J. Immunol., 1995, 155, 1767).
Molt-4 cells were washed and resuspended in HEPES-buffered Saline (5.4 mM KCl, 120 mM NaCl, 25 mM Glucose, 1.5 mM MgSO4, 1 mM Na pyruvate, 20 mM Hepes) and plated in 96-well microtiter white plates to a final concentration of 6×10^6 cells/mL. Then various 5× proteasome inhibitor concentrations (or diluted DMSO for controls), prepared from 250×DMSO solutions by diluting 50-fold using HEPES-buffered saline, were added to the plate to a final 1× concentration. After 15 minutes incubation at 37° C., a fluorimetric cell permeable substrate (MeOSuc-FLF-AFC) (methoxysuccinyl-Phe-Leu-Phe-7-amido-4-trifluoromethylcoumarin) purchased from Enzyme Systems Products, catalogue number AFC-88, was added to each well at a final concentration of 25 μM from a stock solution of 20 mM in DMSO. Reaction volumes were 100 μl per well.
The concentration of free AFC was monitored every 1.5 min for 30 min ([…]) on a Polastar Optima, BMG Labtechnologies microplate reader, using an excitation wavelength of 390 nm and emission wavelength of 520 nm. Proteasome activity was determined under conditions in which substrate hydrolysis increased linearly with time and the change in fluorescent signal was proportional to the concentration of free AFC.
Determination of EC50 Values for Proteasome Inhibitors in MOLT-4 Cell Line
as §1, with “of” for “of the”, “proteasome in Molt-4 cells” for “HEP and of bovine α-chymotrypsin”, “cells” for “the enzyme”, “C.” for “C. (or room temperature for α-chymotrypsin)”

| pIC50 [1] | pEC50 [2] | SMILES |
| --- | --- | --- |
| > 7.00 | < 5.00 | CC(=O)NCC(=O)N[C@@H](CCCNC(=N)N[N+](=O)[O-])C(=O)N[C@@H](CC(C)C)B1O[C@@H]2C[C@@H]3C[C@@H](C3(C)C)[C@]2(C)O1 [D.1.11, 2-Acetylamino-acetamide,N-[(1S)-1-[[[(1R)-1-[(3aS,4S,6S,7aR)-hexahydro-3a,5,5-trimethyl-4,6-methano-1,3,2-benzodioxaborol-2-yl]-3-methylbutyl]amino]carbonyl]-4-[[imino(nitroamino)methyl]amino]butyl]] |
| > 8.00 | 5.70 to 6.70 | CC(C)C[C@H](NC(=O)[C@H](CCCNC(=N)N[N+](=O)[O-])NC(=O)CCCCCNS(=O)(=O)c1ccccc1)B1O[C@@H]2C[C@@H]3C[C@@H](C3(C)C)[C@]2(C)O1 [D.1.12, 6-Benzenesulfonylaminohexanamide,N-[(1S)-1-[[[(1R)-1-[(3aS,4S,6S,7aR)-hexahydro-3a,5,5-trimethyl-4,6-methano-1,3,2-benzodioxaborol-2-yl]-3-methylbutyl]amino]carbonyl]-4-[[imino(nitroamino)methyl]amino]butyl]] |
| > 8.00 | 5.00 to 5.70 | CCS(=O)(=O)NCCCCCCCC(=O)N[C@@H](CCCNC(=N)N[N+](=O)[O-])C(=O)N[C@@H](CC(C)C)B1O[C@@H]2C[C@@H]3C[C@@H](C3(C)C)[C@]2(C)O1 [D.1.13] |
| > 7.00 | < 5.00 | CCS(=O)(=O)NCCCCCC(=O)N[C@@H](CCCNC(=N)N[N+](=O)[O-])C(=O)N[C@@H](CC(C)C)B1O[C@@H]2C[C@@H]3C[C@@H](C3(C)C)[C@]2(C)O1 [D.1.14, 6-(Ethanesulfonylamino)hexanamide,N-[(1S)-1-[[[(1R)-1-[(3aS,4S,6S,7aR)-hexahydro-3a,5,5-trimethyl-4,6-methano-1,3,2-benzodioxaborol-2-yl]-3-methylbutyl]amino]carbonyl]-4-[[imino(nitroamino)methyl]amino]butyl]] |
| > 8.00 | 5.70 to 6.70 | COC(=O)CCCC(=O)N[C@@H](CCCNC(=N)N[N+](=O)[O-])C(=O)N[C@@H](CC(C)C)B1O[C@@H]2C[C@@H]3C[C@@H](C3(C)C)[C@]2(C)O1 [D.2.1, 4-(methoxycarbonyl)butanamide,N-[(1S)-1-[[[(1R)-1-[(3aS,4S,6S,7aR)-hexahydro-3a,5,5-trimethyl-4,6-methano-1,3,2-benzodioxaborol-2-yl]-3-methylbutyl]amino]carbonyl]-4-[[imino(nitroamino)methyl]amino]butyl]] |
| > 8.00 | > 6.70 | CC(C)C[C@H](NC(=O)[C@H](CCCNC(=N)N[N+](=O)[O-])NC(=O)CCCCCCCCCCCNC(=O)OC(C)(C)C)B1O[C@@H]2C[C@@H]3C[C@@H](C3(C)C)[C@]2(C)O1 [D.2.4, 12-[(1,1-dimethylethoxy)carbonylamino] dodecanamide,N-[(1S)-1-[[[(1R)-1-[(3aS,4S,6S,7aR)-hexahydro-3a,5,5-trimethyl-4,6-methano-1,3,2-benzodioxaborol-2-yl]-3-methylbutyl]amino]carbonyl]-4-[[imino(nitroamino)methyl]amino]butyl]-] |
| > 8.00 | 5.70 to 6.70 | COC(=O)CCCCCCC(=O)N[C@@H](CCCNC(=N)N[N+](=O)[O-])C(=O)N[C@@H](CC(C)C)B1O[C@@H]2C[C@@H]3C[C@@H](C3(C)C)[C@]2(C)O1 [D.2.5] |
| > 8.00 | > 6.70 | CCCCCCCCCC(=O)N[C@@H](CCCNC(=N)N[N+](=O)[O-])C(=O)N[C@@H](CC(C)C)B1O[C@@H]2C[C@@H]3C[C@@H](C3(C)C)[C@]2(C)O1 [D.3.1, Decanamide,N-[(1S)-1-[[[(1R)-1-[(3aS,4S,6S,7aR)-hexahydro-3a,5,5-trimethyl-4,6-methano-1,3,2-benzodioxaborol-2-yl]-3-methylbutyl]amino]carbonyl]-4-[[imino(nitroamino)methyl]amino]butyl]] |

Continued, compound first:

| SMILES | pIC50 [1] | pEC50 [2] |
| --- | --- | --- |
| CC(C)C[C@H](NC(=O)[C@H](CCCNC(=N)N[N+](=O)[O-])NC(=O)CCCC1CCN(C)CC1)B1O[C@@H]2C[C@@H]3C[C@@H](C3(C)C)[C@]2(C)O1 [D.1.10, 4-(1-Methyl-piperidin-4-yl)-butanamide,N-[(1S)-1-[[[(1R)-1-[(3aS,4S,6S,7aR)-hexahydro-3a,5,5-trimethyl-4,6-methano-1,3,2-benzodioxaborol-2-yl]-3-methylbutyl]amino]carbonyl]-4-[[imino(nitroamino)methyl]amino]butyl]] | > 7.00 | 5.70 to 6.70 |
| CC(C)C[C@H](NC(=O)[C@H](CCCNC(=N)N[N+](=O)[O-])NC(=O)CCCCCCCCCN1C(=O)c2ccccc2C1=O)B1O[C@@H]2C[C@@H]3C[C@@H](C3(C)C)[C@]2(C)O1 [D.2, 10-(1,3-Dioxo-1,3-dihydro-isoindol-2-yl)-decanamide, N-[(1S)-1-[[[(1R)-1-[(3aS,4S,6S,7aR)-hexahydro-3a,5,5-trimethyl-4,6-methano-1,3,2-benzodioxaborol-2-yl]-3-methylbutyl]amino]carbonyl]-4-[[imino(nitroamino)methyl]amino]butyl]-;] | > 8.00 | > 6.70 |
| CCCCN1CCC(CCCC(=O)N[C@@H](CCCNC(=N)N[N+](=O)[O-])C(=O)N[C@@H](CC(C)C)B2O[C@@H]3C[C@@H]4C[C@@H](C4(C)C)[C@]3(C)O2)CC1 [D.2.2, 4-(1-Butyl-piperidin-4-yl)-butanamide,N-[(1S)-1-[[[(1R)-1-[(3aS,4S,6S,7aR)-hexahydro-3a,5,5-trimethyl-4,6-methano-1,3,2-benzodioxaborol-2-yl]-3-methylbutyl]amino]carbonyl]-4-[[imino(nitroamino)methyl]amino]butyl]] | > 8.00 | < 5.00 |
| CCCCOCC(=O)N[C@@H](CCCNC(=N)N[N+](=O)[O-])C(=O)N[C@@H](CC(C)C)B1O[C@@H]2C[C@@H]3C[C@@H](C3(C)C)[C@]2(C)O1 [D.2.3, 2-Butoxyacetamide,N-[(1S)-1-[[[(1R)-1-[(3aS,4S,6S,7aR)-hexahydro-3a,5,5-trimethyl-4,6-methano-1,3,2-benzodioxaborol-2-yl]-3-methylbutyl]amino]carbonyl]-4-[[imino(nitroamino)methyl]amino]butyl]] | > 8.00 | > 6.70 |
| COCCOCC(=O)NCC(=O)N[C@@H](CCCNC(=N)N[N+](=O)[O-])C(=O)N[C@@H](CC(C)C)B1O[C@@H]2C[C@@H]3C[C@@H](C3(C)C)[C@]2(C)O1 [D.2.6] | > 7.00 | 5.00 to 5.70 |
| CCCCCCCCCC(=O)NCC(=O)N[C@@H](CC(C)C)B1O[C@@H]2C[C@@H]3C[C@@H](C3(C)C)[C@]2(C)O1 [D.2.7, Decanamide,N-[1-[[[(1R)-1-[(3aS,4S,6S,7aR)-hexahydro-3a,5,5-trimethyl-4,6-methano-1,3,2-benzodioxaborol-2-yl]-3-methylbutyl]amino]carbonyl]methyl]] | > 8.00 | > 6.70 |
| COCCOCCOCC(=O)NCC(=O)N[C@@H](CC(C)C)B1O[C@@H]2C[C@@H]3C[C@@H](C3(C)C)[C@]2(C)O1 [D.2.8, 2-[2-(2-methoxyethoxy)ethoxy]acetamide,N-[1-[[[(1R)-1-[(3aS,4S,6S,7aR)-hexahydro-3a,5,5-trimethyl-4,6-methano-1,3,2-benzodioxaborol-2-yl]-3-methylbutyl]amino]carbonyl]methyl]] | > 7.00 | > 6.70 |
